Experimental data reported in ChEMBL document CHEMBL1671712, “Emergence of resistance among USA300 methicillin-resistant Staphylococcus aureus isolates causing invasive disease in the United States” (2010).

Tests used:
Staphylococcus aureus [1] = assay: Antimicrobial activity against Staphylococcus aureus USA300 isolate harboring pSK41 plasmid expressing ermC gene assessed resistant isolates; format: functional
Staphylococcus aureus [2] = assay: Antimicrobial activity against Staphylococcus aureus USA300 isolate harboring pSK41 plasmid assessed resistant isolates; format: functional
Staphylococcus aureus [3] = assay: Antimicrobial activity against Staphylococcus aureus USA300 isolate harboring pSK41 plasmid expressing aac'-aph'''' gene assessed resistant isolates; format: functional, organism-based
Staphylococcus aureus [4] = assay: Antimicrobial activity against Staphylococcus aureus USA300 isolate harboring pSK41 plasmid expressing tetK gene assessed resistant isolates; format: functional

| Compound | Activity (Staphylococcus aureus [2]) | also measured |
| --- | --- | --- |
| CCC[C@@H]1C[C@@H](C(=O)N[C@@H]([C@H]2O[C@H](SC)[C@H](O)[C@@H](O)[C@H]2O)[C@H](C)Cl)N(C)C1 [CLINDAMYCIN] | – | Activity (Staphylococcus aureus [1]): 6.2% |
| C[C@H]1COc2c(N3CCN(C)CC3)c(F)cc3c(=O)c(C(=O)O)cn1c23.C[C@H]1COc2c(N3CCN(C)CC3)c(F)cc3c(=O)c(C(=O)O)cn1c23.O [LEVOFLOXACIN] | 45% | – |
| CC[C@H]1OC(=O)[C@H](C)[C@@H](O[C@H]2C[C@@](C)(OC)[C@@H](O)[C@H](C)O2)[C@H](C)[C@@H](O[C@@H]2O[C@H](C)C[C@H](N(C)C)[C@H]2O)[C@](C)(O)C[C@@H](C)C(=O)[C@H](C)[C@@H](O)[C@]1(C)O [ERYTHROMYCIN] | 85% | – |
| GENTAMICIN | – | Activity (Staphylococcus aureus [3]): 1% |
| Cc1onc(-c2ccccc2)c1C(=O)N[C@@H]1C(=O)N2[C@@H]1SC(C)(C)[C@@H]2C(=O)O [OXACILLIN] | 100% | – |
| CC1(C)S[C@@H]2[C@H](NC(=O)Cc3ccccc3)C(=O)N2[C@H]1C(=O)O [PENICILLIN G] | 100% | – |
| CN(C)[C@@H]1C(O)=C(C(N)=O)C(=O)[C@@]2(O)C(O)=C3C(=O)c4c(O)cccc4[C@@](C)(O)[C@H]3C[C@@H]12 [TETRACYCLINE] | – | Activity (Staphylococcus aureus [4]): 8.4% |
